PubChem BioAssay (NCI)
Values joined by “and” are separate entries in the source; they are usually repeats but may differ in a detail not shown here. Identical values can stand only once.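 Interpolation was linear, between the two tested concentrations surrounding the appropriate level; five concentrations were tested over 48 hours in 96-well plates. GI50: concentration for 50% inhibition of growth. TGI is the concentration that stops growth completely.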

Assays:
Test in all cases: NCI-60 cell line screen, 48 h
[1] = tested on: COLO 205 colon
[2] = tested on: IGROV1 ovarian
[3] = tested on: LOX IMVI melanoma
[4] = tested on: M14 melanoma
[5] = tested on: NCI-H522 lung
[6] = tested on: RPMI-8226 leukemia
[7] = tested on: RXF 393 renal
[8] = tested on: SF-539 CNS
[9] = tested on: SK-MEL-2 melanoma
[10] = tested on: SNB-19 CNS

SMILES	GI50 [1]	TGI [1]	GI50 [2]	TGI [2]	GI50 [3]	TGI [3]	GI50 [4]	TGI [4]	GI50 [5]	TGI [5]	GI50 [6]	TGI [6]	GI50 [7]	TGI [7]	GI50 [8]	TGI [8]	GI50 [9]	TGI [9]	GI50 [10]	TGI [10]
OB1OCc2cc(/C=C/c3cccc(C(F)(F)F)c3)ccc21	2.31 µM	> 100 µM	1.88 µM	60.2 µM	0.302 µM	1.25 µM	0.653 µM	35.3 µM	0.991 µM	87.9 µM	2.38 µM	> 100 µM	2.23 µM	11.4 µM	0.405 µM	11.1 µM	46.1 µM	> 100 µM	0.765 µM	48.7 µM
CC(C)c1ccccc1NC(=O)/C(Cl)=C1/Sc2ccccc2NC1=O	–	74.6 µM	–	> 100 µM	–	> 100 µM	–	> 100 µM	–	51.8 µM	–	58.8 µM	–	49.6 µM	–	57.7 µM	–	37.8 µM	–	> 100 µM
O=C/C(=C(/Cl)c1ccc(O)cc1)c1ccccc1	–	46.9 µM	–	66.6 µM	–	46.9 µM	–	> 57.1 µM	–	26.1 µM	–	> 63 µM	–	57.2 µM	–	> 57.1 µM	–	81.6 µM	–	> 100 µM
COc1cccc(/C=C2\CCC(C)(CN(C)C)C2=O)c1 (stereo unspecified)	–	> 100 µM	–	> 100 µM	–	> 100 µM	–	> 100 µM	–	91.6 µM	–	68.1 µM	–	> 100 µM	–	> 100 µM	–	> 100 µM	–	> 100 µM
Cc1ncc(C(=O)Nc2ccc(CN3CCN(C)CC3)c(C(F)(F)F)c2)cc1C#Cc1cnc(NC2CC2)c2ncccc12	1.36 µM	4.51 µM	0.709 µM	1.51 µM	0.59 µM	1.11 µM	0.56 µM	1.11 µM	0.635 µM	1.23 µM	0.621 µM	1.62 µM	0.606 µM	1.1 µM	0.612 µM	1.11 µM	1.66 µM	5.54 µM	0.713 µM	1.32 µM
CCOC(=O)c1ccc(N[C@@H]2c3cc4c(cc3C(C3=CC(=O)C(=O)C(OC)=C3)[C@H]3C(=O)OCC32)OCO4)cc1 (stereo partly specified)	–	28.3 µM	–	28.5 µM	–	11.4 µM	–	9.96 µM	–	18.8 µM	–	66.8 µM	–	16.8 µM	–	4.56 µM	–	6.08 µM	–	42 µM
CCSc1nc(N)c2cn[nH]c2n1	23.5 µM	53.9 µM	35.9 µM	> 100 µM	30.9 µM	> 100 µM	33.8 µM	> 100 µM	62 µM	> 100 µM	21.3 µM	49.1 µM	13.3 µM	35.5 µM	43.6 µM	> 100 µM	47.3 µM	> 100 µM	39.2 µM	> 100 µM
CCC1=C[C@@H]2CN(C1)Cc1c([nH]c3ccccc13)[C@@](C(=O)OC)(c1cc3c(cc1OC)N(C)[C@H]1[C@@](O)(C(=O)OC)[C@H](OC(C)=O)[C@]4(CC)[C@@H]5C[C@@H]5CN5CC[C@]31[C@@H]54)C2	< 0.005 µM	0.00546 µM and 0.0282 µM	–	6.87 µM and 14.5 µM	< 0.005 µM	–	< 0.005 µM and 0.0119 µM	–	< 0.005 µM	< 0.005 µM	< 0.005 µM	0.656 µM	0.0105 µM	11.1 µM	0.0342 µM	2.91 µM	< 0.005 µM	2.07 µM	–	19.2 µM and 35.1 µM
CCN(CC)CCNC(=O)c1c(C)[nH]c(/C=C2\C(=O)Nc3ccc(F)cc32)c1C	3.57 µM and 2.98 µM and 3.39 µM	> 10 µM and 5.84 µM and 8.8 µM	1.48 µM and 2.63 µM and 2.05 µM	> 10 µM and 20 µM and 15.9 µM	1.29 µM and 2.29 µM and 1.32 µM	2.92 µM and 5.01 µM and 3 µM	0.574 µM and 1.03 µM and 0.687 µM	2.33 µM and 3.56 µM and 2.23 µM	6.2 µM and 3.52 µM and 2.73 µM	> 10 µM and 6.92 µM and 6.1 µM	2.93 µM and 4.58 µM and 1.46 µM	> 10 µM and 10.9 µM and 5.31 µM	1.19 µM and 1.45 µM and 1.38 µM	8.47 µM and 4.56 µM and 4.37 µM	1.38 µM and 2.36 µM and 1.21 µM	6.7 µM and 5.41 µM and 2.72 µM	1.38 µM and 2.1 µM and 4.56 µM	9.46 µM and 4.82 µM and 13.2 µM	> 10 µM and 5.36 µM and 11.4 µM	> 10 µM and 16.3 µM and 25.6 µM
CCCCCCCCCCCC[n+]1ccccc1 (tested in a mixture with another compound)	0.404 µM	1.52 µM	0.519 µM	2.28 µM	0.691 µM	2.41 µM	1.1 µM	–	0.855 µM	5.42 µM	0.23 µM	1.52 µM	0.682 µM	4.44 µM	1.43 µM	3.44 µM	1.76 µM	5.52 µM	1.29 µM	3.48 µM
C=C1CC2(OC1=O)C(=O)N(CCCN1C(=O)C3(CC(=C)C(=O)O3)c3ccccc31)c1ccccc12 (stereo unspecified)	0.52 µM	2.03 µM	1.32 µM	2.68 µM	0.805 µM	2.1 µM	1.68 µM	3.67 µM	0.444 µM	1.87 µM	0.579 µM	2.78 µM	1.32 µM	2.83 µM	1.76 µM	3.43 µM	10.4 µM	32.3 µM	13.3 µM	26.2 µM
O=S(=O)(CCOCc1ccc(-c2ccc3ncnc(Nc4ccc(OCc5cccc(F)c5)c(Cl)c4)c3c2)o1)c1ccccc1	> 25 µM	> 25 µM	> 25 µM	> 25 µM	> 25 µM	> 25 µM	> 25 µM	> 25 µM	> 25 µM	> 25 µM	> 25 µM	> 25 µM	> 25 µM	> 25 µM	> 25 µM	> 25 µM	> 25 µM	> 25 µM	> 25 µM	> 25 µM
CC1(C)N=C(N)N=C(N)N1c1ccc(OCC(=O)Nc2ccccc2)c(Cl)c1	18.3 µM	> 100 µM	0.688 µM	> 100 µM	0.589 µM	> 100 µM	13.8 µM	> 100 µM	3.01 µM	> 100 µM	9.89 µM	> 100 µM	> 87.1 µM	> 100 µM	2.1 µM	> 100 µM	> 93.9 µM	> 100 µM	28.8 µM	> 100 µM
Cc1ccc2nc3c(Cl)c(C)c(=O)cc-3sc2c1	> 100 µM	> 100 µM	> 100 µM	> 100 µM	–	> 100 µM	37.7 µM	> 100 µM	–	> 100 µM	–	> 100 µM	–	> 100 µM	50.9 µM	> 100 µM	51.1 µM	> 100 µM	> 100 µM	> 100 µM
